# In patent publication US12558430B2, “Dual amylin and calcitonin receptor agonists and uses thereof” (Eli Lilly and Company, priority 2020, dated 2026):
# Read-outs that look alike come from different tables or passages of the source. Starred links: 1 amine or outer side, 2 acyl side, 3 side chain; linkers in the order of their positions; H or OH if unused. Non-standard residues stand in square brackets, D forms with d. Residues, ends and D or L forms follow the SMILES beside them. Groups on a side chain read outwards from the residue. *: point of attachment. C20 diacid = O=C(O)CCCCCCCCCCCCCCCCCCC(=O)*; γGlu = O=C(O)[C@H](CCC(=O)[*:2])N[*:1]; AEEA = NCCOCCOCC(=O)O; Aib = CC(C)(N)C(=O)O
# Columns and labels:
# human CT receptor = biological target: T1, human CT receptor (Homo sapiens, UniProt P30988); assay: hCT cAMP functional assay (HTRF); type: cell-based
# T1 sequence (P30988 25-474): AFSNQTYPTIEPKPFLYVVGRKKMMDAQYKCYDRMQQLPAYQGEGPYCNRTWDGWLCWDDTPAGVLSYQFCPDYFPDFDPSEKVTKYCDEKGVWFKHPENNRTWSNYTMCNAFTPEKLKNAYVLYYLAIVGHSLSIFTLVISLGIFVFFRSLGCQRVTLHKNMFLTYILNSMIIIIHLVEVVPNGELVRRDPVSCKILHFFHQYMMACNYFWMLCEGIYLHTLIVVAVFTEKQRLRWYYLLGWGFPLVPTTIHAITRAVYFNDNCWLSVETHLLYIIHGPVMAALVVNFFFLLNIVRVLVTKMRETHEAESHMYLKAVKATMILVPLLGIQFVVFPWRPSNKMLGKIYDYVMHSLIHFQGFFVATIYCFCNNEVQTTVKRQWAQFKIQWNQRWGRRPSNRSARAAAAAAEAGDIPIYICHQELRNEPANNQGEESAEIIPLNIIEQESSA
# Method: The AMY1 and CT receptors are GPCRs that are functionally coupled to Gαs proteins. […] Human AMY1 or CT receptors are stably expressed in human urinary bladder cells (UM-UC-3) cells under control of a pcDNA (CALCR) or pCMV piggybac (RAMP1) expression vector. AMY1 cells are cultured in MEM 1X (Corning) supplemented with 10% FBS, 1% antibiotic/antimycotic solution, 1 mM sodium pyruvate, 1X MEM NEAA, 1X GlutaMAX-I, 200 μg/mL hygromycin B, and 0.4 μg/mL puromycin. CT cells are cultured in the same medium except that it lacks the puromycin. Cultured cells are grown to 70% confluency, and then incubated overnight with fresh medium.
# Peptides diluted in DMSO are added (200 nL/well) in a 1:3 dilution series using ECHO acoustic liquid handler (Beckman). Cultured cells are detached with TrypLE Express (Gibco), resuspended in assay buffer, and 10 μL containing 1200 cells/well (hCT) or 1500 cells/well (hAMY1) are dispensed into each well. The plates are incubated at room temperature for 1 hour.
# The amount of intracellular cAMP is quantitated using HTRF technology (Homogeneous Time Resolved Fluorescence; Cisbio) as per vendor instructions. Briefly, 10 μL cAMP-d2 conjugate and 10 μL anti-cAMP-cryptate conjugate in lysis buffer are incubated with the treated cells at room temperature for 60 min. […]
# human AMY1 receptor = human AMY1 receptor (Homo sapiens, UniProt O60894+P30988); assay: hAMY1 cAMP functional assay (HTRF); type: cell-based
# Method: The AMY1 and CT receptors are GPCRs that are functionally coupled to Gαs proteins. Stimulation of these receptors results in an increased production of intracellular cAMP, which can be detected using standard in vitro technologies. Human AMY1 or CT receptors are stably expressed in human urinary bladder cells (UM-UC-3) cells under control of a pcDNA (CALCR) or pCMV piggybac (RAMP1) expression vector. AMY1 cells are cultured in MEM 1X (Corning) supplemented with 10% FBS, 1% antibiotic/antimycotic solution, 1 mM sodium pyruvate, 1X MEM NEAA, 1X GlutaMAX-I, 200 μg/mL hygromycin B, and 0.4 μg/mL puromycin. CT cells are cultured in the same medium except that it lacks the puromycin. Cultured cells are grown to 70% confluency, and then incubated overnight with fresh medium.
# On the assay day, 10 μL of assay buffer (phenol red free MEM (Corning, cat #17-305-CV), 0.1% casein, 0.5 mM IBMX, 5 mM HEPES, pH 7.4) is dispensed into each well of white poly-D-lysine coated 384-well plates (Corning cat #354661). […]
# The amount of intracellular cAMP is quantitated using HTRF technology (Homogeneous Time Resolved Fluorescence; Cisbio) as per vendor instructions. […] The HTRF signal is immediately detected using an Envision plate reader (Perkin-Elmer) to calculate the ratio of fluorescence at 665 to 620 nm. […]
# [1] = system: Primary human dendritic cells
# [2] = Monkey pharmacokinetics, single subcutaneous dose; type: in vivo; settings: cynomolgus monkey, plasma, sc, 20 nmol/kg, single 20 nmol/kg SC
# Method: (§1) Plasma concentration of Compound II is determined by a qualified Liquid Chromatography Mass Spectrometry (LC/MS) method at Q Squared Solutions BioSciences LLC, Ithaca, N.Y. Compound II and an analog as an internal standard are extracted from 100% species-specific plasma using protein precipitation followed by solid phase extraction. The intact mass of Compound II which includes peptide plus acyl chain is detected by a Q-Exactive Orbitrap™ mass spectrometer.
# In a monkey pharmacokinetics study, male and female Cynomolgus monkeys are administered a single subcutaneous dose of 20 nmol/kg (0.084 mg/kg) of Compound II in Tris-mannitol buffer (pH 8.0) at a volume of 0.2 mL/kg. Blood is collected predose and at 1, 3, 6, 12, 24, 48, 72, 96, 120, 144, 168, 240, 336, 408, 504 hours postdose for pharmacokinetic characterization.
# [3] = Rat pharmacokinetics, single subcutaneous dose; type: in vivo; settings: male, Sprague Dawley, plasma, sc, 20 nmol/kg, single 20 nmol/kg SC
# Method: as §1
# In a rat pharmacokinetic study, male Sprague Dawley rats are administered a single subcutaneous dose of 20 nmol/kg (0.084 mg/kg) of Compound II in Tris-mannitol buffer (pH 8.0) at a volume of 0.2 mL/kg. Blood is collected at 1-, 3-, 6-, 12-, 24-, 48-, 72-, 96-, 120-, and 144-hours post-dose for pharmacokinetic characterization.
# DIO male Long Evans rats = assay: DIO rats: Compound II in combination with other incretin compounds; type: in vivo, rat; settings: mean ± SEM; for Cumulative Food Intake: 14-day treatment period; for Body Weight Change: Day −1 to Day 14
# Method: This study is conducted to investigate the effect of Compound II for diabetes and/or obesity conditions in DIO rats when administered in combination with other incretin compounds, including a GLP-1 agonist (Compound III), oxyntomodulin analog (Compound IV), and a triagonist of glucagon, GLP-1, and GIP (Compound V). Diet-induced obese (DIO) male Long Evans (Envigo) rats, maintained on a calorie rich diet since arrival at Lilly (TD95217; Teklad, Madison, Wis.), are used in the following studies. Animals are individually housed in a temperature-controlled (24° C.) facility with 12-hour light/dark cycle (lights on 2200) and free access to food (TD95217) and water.
# The rats are randomized according to their body weight, so that each experimental group of animals would have similar body weight. The body weights range from 529 to 823 grams.
# Each group contains five rats. Vehicle and Compound II (1 nmol/kg) are dissolved in vehicle (40 mM Tris-HCl pH8+0.02% PS80) and are administered by subcutaneous (SC) injection (1 mL/kg) to ad libitum fed DIO rats 30 to 90 minutes prior to the onset of the dark cycle every 3 days for 14 days. SC injections are made on Days 1, 4, 7, 10 and 13. Body weight and food intake are measured daily throughout the study. Absolute changes in body weight are calculated by subtracting the body weight of the same animal prior to the first injection of molecule.
# At the end of the study, blood is collected to measure blood glucose and plasma insulin. Blood glucose is measured by AccuChek glucometers (Roche, Indianapolis, Ind.). Insulin is measured by ELISA (MSD, Rockville, Md.).
# All data are presented as mean±SEM of 5 animals per group. Statistical analysis is performed using one-way ANOVA, followed by Tukey's multiple comparison test to compare treatment groups to vehicle group or each other. Significant differences are identified at p<0.05.
# [4] = background statement; cited from earlier work
# Method for CD4+ T cells: Cryopreserved PBMCs were used from ten healthy donors and the CD8+ T cells were depleted from the PBMCs and labeled with 1 μM Carboxyfluorescein Diacetate Succinimidyl Ester (CFSE). […] Cells were cultured and incubated for 7 days at 37° C. with 5% CO2. On day 7, samples were stained with the following cell surface markers: anti-CD3, anti-CD4, anti-CD14, anti-CD19, and DAPI for viability detection by flow cytometry using a BD LSRFortessa™, equipped with a High Throughput Sampler (HTS). Data was analyzed using FlowJo® Software (FlowJo, LLC, TreeStar) and a Cellular Division Index (CDI) was calculated. Briefly, the CDI for each test candidate's MAPPs-derived peptide cluster was calculated by dividing the percent of proliferating CFSE^dimCD4+ T cells from peptide-stimulated wells by the percent of proliferating CFSE^dimCD4+ T cells in the unstimulated wells. A CDI of ≥2.5 was considered to represent a positive response. A percent donor frequency across all donors was evaluated.
# human AMY1 receptor, sequence (O60894 27-148, one chain of several): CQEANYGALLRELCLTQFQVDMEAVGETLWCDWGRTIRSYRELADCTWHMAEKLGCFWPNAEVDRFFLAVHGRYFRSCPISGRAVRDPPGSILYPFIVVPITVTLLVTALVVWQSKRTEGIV
molecule,measurement,setting,value
CC(=O)N[C@@H](C)C(=O)N[C@@H](CO)C(=O)N[C@@H](Cc1c[nH]cn1)C(=O)N[C@@H](CC(C)C)C(=O)N[C@@H](CO)C(=O)N[C@H](C(=O)N[C@@H](C)C(=O)N[C@H](C(=O)N[C@@H](CC(C)C)C(=O)NCC(=O)N[C@@H](CCCCNC(=O)COCCOCCNC(=O)COCCOCCNC(=O)CC[C@H](NC(=O)CCCCCCCCCCCCCCCCCCC(=O)O)C(=O)O)C(=O)N[C@@H](CC(C)C)C(=O)N[C@@H](CO)C(=O)NC(C)(C)C(=O)N[C@@H](CCC(=O)O)C(=O)N[C@@H](CC(C)C)C(=O)N[C@@H](Cc1c[nH]cn1)C(=O)N[C@@H](CCCCN)C(=O)N[C@@H](CC(C)C)C(=O)N[C@@H](CCC(=O)O)C(=O)N[C@@H](CC(=O)O)C(=O)N[C@@H](Cc1ccc(O)cc1)C(=O)N1CCC[C@H]1C(=O)N[C@@H](CCCNC(=N)N)C(=O)N[C@H](C(=O)N[C@@H](CC(=O)O)C(=O)N[C@H](C(=O)NCC(=O)N[C@@H](C)C(=O)N[C@@H](CCC(=O)O)C(=O)N[C@@H](CO)C(=O)N1CCC[C@H]1C(N)=O)C(C)C)[C@@H](C)O)C(C)C)[C@@H](C)O [Compound II] (Ac-ASHLSTAVLGK([AEEA-AEEA-γGlu-C20 diacid])LS[Aib]ELHKLEDYPRTDVGAESP-NH2),EC50,human CT receptor,0.0409 ± 0.0147 nM
same,EC50,human AMY1 receptor,0.0494 ± 0.00514 nM
same,# of clusters,[1],0
same,% Donors (displaying non-germline residues),[1],0%
same,immunogenicity risk (MAPPs),[1],low level of immunogenicity risk
same,AUC(0-inf),"[2]; both sexes, Mean",47.5 µM·h
same,CL/F,"[2]; both sexes, Mean",0.42 mL/h/kg
same,Cmax,"[2]; both sexes, Mean",168 nM
same,Tmax,"[2]; both sexes, Mean",42 h
same,half-life,"[2]; both sexes, Mean",178 h
same,AUC(0-inf),[2]; animal P0001,50.4 µM·h
same,CL/F,[2]; animal P0001,0.4 mL/h/kg
same,Cmax,[2]; animal P0001,198 nM
same,Tmax,[2]; animal P0001,12 h
same,half-life,[2]; animal P0001,185 h
same,AUC(0-inf),[2]; animal P0101,44.7 µM·h
same,CL/F,[2]; animal P0101,0.45 mL/h/kg
same,Cmax,[2]; animal P0101,138 nM
same,Tmax,[2]; animal P0101,72 h
same,half-life,[2]; animal P0101,170 h
same,% Positive Donors,CD4+ T cells,12.5%
same,CDI Range High,CD4+ T cells,19.7
same,CDI Range Low,CD4+ T cells,0.7
same,Median CDI (All donors),CD4+ T cells,1.0
same,Median CDI (Positive Donors),CD4+ T cells,19.7
same,Number of donors (positive/tested),CD4+ T cells,1/8
same,immunogenicity risk (T cell proliferation),CD4+ T cells,low level of immunogenicity risk
same,AUC(0-inf),[3]; Mean,8.59 µM·h
same,CL/F,[3]; Mean,2.33 mL/h/kg
same,Cmax,[3]; Mean,90 nM
same,Tmax,[3]; Mean,24 h
same,half-life,[3]; Mean,58 h
same,AUC(0-inf),[3]; animal R0001,8.41 µM·h
same,CL/F,[3]; animal R0001,2.38 mL/h/kg
same,Cmax,[3]; animal R0001,88 nM
same,Tmax,[3]; animal R0001,48 h
same,half-life,[3]; animal R0001,47 h
same,AUC(0-inf),[3]; animal R0002,8.7 µM·h
same,CL/F,[3]; animal R0002,2.3 mL/h/kg
same,Cmax,[3]; animal R0002,81 nM
same,Tmax,[3]; animal R0002,12 h
same,half-life,[3]; animal R0002,60 h
same,AUC(0-inf),[3]; animal R0003,8.65 µM·h
same,CL/F,[3]; animal R0003,2.31 mL/h/kg
same,Cmax,[3]; animal R0003,99 nM
same,Tmax,[3]; animal R0003,12 h
same,half-life,[3]; animal R0003,67 h
CC(=O)N[C@@H](C)C(=O)N[C@@H](CO)C(=O)N[C@@H](Cc1c[nH]cn1)C(=O)N[C@@H](CC(C)C)C(=O)N[C@@H](CO)C(=O)N[C@H](C(=O)N[C@@H](C)C(=O)N[C@H](C(=O)N[C@@H](CC(C)C)C(=O)NCC(=O)N[C@@H](CCCCN)C(=O)N[C@@H](CC(C)C)C(=O)N[C@@H](CO)C(=O)NC(C)(C)C(=O)N[C@@H](CCC(=O)O)C(=O)N[C@@H](CC(C)C)C(=O)N[C@@H](Cc1c[nH]cn1)C(=O)N[C@@H](CCCCN)C(=O)N[C@@H](CC(C)C)C(=O)N[C@@H](CCC(=O)O)C(=O)N[C@@H](CC(=O)O)C(=O)N[C@@H](Cc1ccc(O)cc1)C(=O)N1CCC[C@H]1C(=O)N[C@@H](CCCNC(=N)N)C(=O)N[C@H](C(=O)N[C@@H](CC(=O)O)C(=O)N[C@H](C(=O)NCC(=O)N[C@@H](C)C(=O)N[C@@H](CCC(=O)O)C(=O)N[C@@H](CO)C(=O)N1CCC[C@H]1C(N)=O)C(C)C)[C@@H](C)O)C(C)C)[C@@H](C)O [Compound I] (Ac-ASHLSTAVLGKLS[Aib]ELHKLEDYPRTDVGAESP-NH2),EC50,human CT receptor,0.0317 ± 0.0058 nM
same,EC50,human AMY1 receptor,0.0493 ± 0.00804 nM
"H-Aib-QGTFTSDYSKYLDEKKAK((2-[2-(2-Amino-ethoxy)-ethoxy]-acetyl)2-(γGlu)-CO-(CH2)18-CO2H)EFVEWLLEGGPSSG-NH2 (H-H[Aib]QGTFTSDYSKYLDEKKAK([AEEA-AEEA-γGlu-C20 diacid])EFVEWLLEGGPSSG-NH2) [Compound IV, oxyntomodulin analog]",Cumulative Food Intake,DIO male Long Evans rats; 10 nmol/kg SC every three days,165.86 ± 7.45 g
same,Body Weight Change,DIO male Long Evans rats; 10 nmol/kg SC every three days,-50.24 ± 6.36 g
Salmon calcitonin,half-life,[4],less than two hours
"Y-Aib-QGTFTSDYSI-αMeL-LDKK((2-[2-(2-Amino-ethoxy)-ethoxy]-acetyl)-(γGlu)-CO-(CH2)18-CO2H)AQ-Aib-AFIEYLLEGGPSSGAPPPS-NH2 (YXQGTFTSDYSIXLDKKAQXAFIEYLLEGGPSSGAPPPS; Aib, αMeL; lipidated Lys; C-terminal amide; SITE 2 X at position 2 is Aib; SITE 13 X at position 13 is alpha-methyl-Leu; MOD_RES 17 The Lys at position 17 is chemically modified by conjugation of the epsilon amino group of the Lys sidechain with 2-[2-(2-Amino-ethoxy)-ethoxy]-acetyl)-(gamma-Glu)-CO-(CH2)18-CO2H; SITE 20 X at position 20 is Aib; MOD_RES 39 C-terminus is amidated) [Compound V, triagonist of glucagon, GLP-1, and GIP]",Cumulative Food Intake,DIO male Long Evans rats; 3 nmol/kg SC every three days,157.50 ± 10.63 g
same,Body Weight Change,DIO male Long Evans rats; 3 nmol/kg SC every three days,-43.28 ± 2.54 g
